Source: patent US20100261753A1, “METHODS FOR PREVENTING AND/OR TREATING DEGENERATIVE DISORDERS OF THE CENTRAL NERVOUS SYSTEM” (AMICUS THERAPEUTICS, INC., priority 2009, published 2010)
Several values for one entry are separate records, joined by “and”; a condition that tells them apart may be missing. Identical values can stand only once. Counter-ions that a name gives are not always drawn. Like-named read-outs stand apart in the source and are kept apart here. Values belong to the molecule of their own block, whether it stands above or below them.

How the values were obtained:
[1] = molecular target: T1, recombinant human GCase (rhGCase; Cerezyme) (Homo sapiens, UniProt P04062, R534H); experiment: In vitro enzyme inhibition assay of rhGCase with 4-MU-β-D-Glc substrate; assay type: biochemical; conditions: for Ki: from IC50 by Cheng-Prusoff equation
T1 construct: purchased Genzyme Corp
T1 sequence (P04062 40-536 R534H): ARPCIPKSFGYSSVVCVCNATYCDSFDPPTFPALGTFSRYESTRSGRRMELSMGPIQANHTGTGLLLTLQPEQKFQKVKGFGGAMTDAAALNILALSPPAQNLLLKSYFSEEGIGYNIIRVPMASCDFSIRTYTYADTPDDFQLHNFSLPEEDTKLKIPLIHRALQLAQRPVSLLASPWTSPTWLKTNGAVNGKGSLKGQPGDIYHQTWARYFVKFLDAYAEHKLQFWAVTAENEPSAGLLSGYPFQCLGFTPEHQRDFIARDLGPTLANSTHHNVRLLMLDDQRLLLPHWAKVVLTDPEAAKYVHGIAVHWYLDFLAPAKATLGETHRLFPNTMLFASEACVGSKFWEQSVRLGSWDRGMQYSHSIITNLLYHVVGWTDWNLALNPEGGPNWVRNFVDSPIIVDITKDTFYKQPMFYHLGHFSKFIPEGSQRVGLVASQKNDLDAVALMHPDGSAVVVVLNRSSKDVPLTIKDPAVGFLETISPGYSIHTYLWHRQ
Procedure: The binding affinity (defined here by Ki binding constant) of GCase for small molecule pharmacological chaperones described in this document were empirically determined using enzyme inhibition assays. In brief, the enzyme inhibition assays used monitored the ability of test compound to bind and prevent the hydrolysis of a fluorogenic substrate in a concentration-dependent manner. Specifically, the enzyme activity of recombinant human GCase (rhGCase; Cerezyme®, Genzyme Corp.) was measured using the 4-methylumbelliferyl-β-D-glucopyranoside (4-MU-β-D-Glc) fluorogenic substrate in the absence or in the presence of varying amounts of each test compound. […] The enzyme inhibition assays were performed at both pH 7.0 (endoplasmic reticulum pH) and at pH 5.2 (lysosomal pH) to gain insight into the binding affinity (i.e., potency) of compounds for GCase in the endoplasmic reticulum and lysososome.
Enzyme (Cerezyme®, a recombinant form of the human enzyme β-glucocerebrosidase) was also diluted in the same buffer “M” at pH 7.0 and pH 5.2. […] Five μl of diluted enzyme was added to 15 μl of the various inhibitor concentrations or buffer “M” alone and incubated at 37° C. for 1 hour with 50 μl of the substrate preparation to assess β-glucosidase activity at pH 7.0 and pH 5.2.

[2] = Compound concentration in brain, spleen and plasma samples of the GCase enhancement study; assay type: in vivo, mice (C57BL/6); conditions: male, C57BL/6, mouse, po, nine doses, 24-hour washout
Procedure: The ability of orally administered test compounds (the hydrochloride salt form of Compound A and Compound B) to elevate GCase levels as compared to reference compound, IFG-tartrate, was assessed in mice. […] Seven animals were used per dose. The dosing solutions were prepared in water. Compounds were administered over 2 weeks as follows: week 1, Mon-Fri (On), Sat-Sun (Off); week 2, Mon-Thu (On); necropsy on Friday. Thus, a total of 9 doses (dosing solutions prepared fresh every day) were given to each mouse, with a 24-hour washout between the last dose and necropsy.
Plasma was collected by spinning blood at 2700 g for 10 minutes at 4° C. Liver, spleen, lung, and brain tissues were removed, washed in cold PBS, blotted dry, flash frozen on dry ice, and stored at −80° C. until analysis. GCase levels were measured by homogenizing approximately 50 mg tissue in 500 μl McIlvane (MI) buffer (100 mM sodium citrate, 200 mM sodium phosphate dibasic, 0.25% sodium taurocholate, and 0.1% Triton X-100, pH 5.2) at pH 5.2 for 3-5 seconds on ice with a micro homogenizer. Homogenates were then incubated at room temperature without and with 2.5 mM conduritol-B-epoxide (CBE) for 30 min. Finally, 3.7 mM 4-methylumbeliferryl-β-glucoside (4-MUG) substrate was added and incubated at 37° C. for 60 min. Reactions were stopped by addition of 0.4 M glycine, pH 10.6. Fluorescence was measured on a plate reader for 1 sec/well using 355 nm excitation and 460 nm emission. Total protein was determined in lysates using the MicroBCA kit according to the manufacturer's instructions. A 4-methylumbelliferone (4-MU) standard curve ranging from 1.0 nM to 50 μM was run in parallel for conversion of raw fluorescence data to absolute GCase activity (in the presence and absence of CBE) and expressed as nanomoles of 4-MU released per milligram of protein per hour (nmol/mg protein/hr). GCase levels and protein levels were calculated using Microsoft Excel (Redmond, Wash.) and GraphPad Prism version 4.02.

Rat pharmacokinetics = assay type: in vivo, Sprague-Dawley rats
Procedure: Pharmacokinetic (PK) data was obtained in rats to assess the bioavailability of test compound. In particular, the following PK parameters were calculated: bioavailability as measured by area under the Concentration/Time curve (AUC), fraction of dose available (% F; further defined below), clearance (CL), volume of distribution (Vd), and half-life (t½). For this purpose, 8-week old Sprague-Dawley male rats were given either a single intravenous (IV) dose equivalent to 3 mg/kg of free base or single escalating p.o. (gavage) doses of test compound equivalent to 10, 30, and 100 mg/kg of free base. Three rats were used per dosing group. Blood was collected over a 24-hr period. The time points for blood collection after intravenous administration were: 0, 2.5, 5, 10, 15, 30, 45 min, 1, 2, 4, 8, 12, and 24 hrs; time points for blood collection after p.o. administrations were: 0, 5, 15, 30, 45 min, 1, 2, 3, 4, 8, 12, and 24 hrs. Plasma samples were analyzed for compound levels by LC-MS/MS at PPD. Raw data was analyzed by non-compartmental analysis in Win-nonLin to calculate Vd, % F, CL, and […].

[3] = pH 7 (endoplasmic reticulum pH), read-out: IC50 pH 7
[4] = male, Sprague-Dawley, plasma, IV, 3 mg/kg free base

IC50 ([1]; pH 5.2, average of three independent experiments, Table 4A, read-out: IC50 pH 5.2): 73 ± 9 nM
IC50 ([1]; pH 5.2, average of three independent experiments, Table 4B, read-out: IC50 pH 5.2): 73 ± 9 nM
Ki ([1]; pH 5.2, read-out: Ki pH 5.2): 384 ± 2.1 nM
IC50 [1, 3]: 9.8 ± 0.5 nM
Ki ([1]; pH 7, read-out: Ki pH 7): 5.1 ± 0.3 nM
concentration at 24 h ([2]; brain, 10 mg/kg p.o., Table 4A): 246 ± 42 nM
concentration at 24 h ([2]; brain, 100 mg/kg p.o., Table 4A): 2070 ± 231 nM
concentration at 24 h ([2]; plasma, 10 mg/kg p.o., Table 4C): 104 ± 15 nM
concentration at 24 h ([2]; plasma, 100 mg/kg p.o., Table 4C): 1530 ± 601 nM
concentration at 24 h ([2]; spleen, 10 mg/kg p.o., Table 4B): 645 ± 214 nM
concentration at 24 h ([2]; spleen, 100 mg/kg p.o., Table 4B): 2160 ± 464 nM
SMILES: O[C@@H]1[C@@H](CCl)CNC[C@H]1O [Compound B, (3R,4R,5S)-5-(chloromethyl)piperidine-3,4-diol]

SMILES: O[C@@H]1CNCC(CF)[C@H]1O (stereo in doubt) [Compound A, (3R,4R,5R)-5-(fluoromethyl)piperidine-3,4-diol]
IC50 ([1]; pH 5.2, average of three independent experiments, Table 3A, read-out: IC50 pH 5.2): 10 ± 1 nM
IC50 ([1]; pH 5.2, average of three independent experiments, Table 3B, read-out: IC50 pH 5.2): 10 ± 1 nM
CL (Rat pharmacokinetics; PO, 30 mg/kg free base): 66.82 ± 8.48 mL/min/kg
VD (Rat pharmacokinetics; PO, 30 mg/kg free base): 13.532 ± 3.291 L/kg
CL (Rat pharmacokinetics; PO, 100 mg/kg free base): 56.55 ± 3.48 mL/min/kg
VD (Rat pharmacokinetics; PO, 100 mg/kg free base): 13.101 ± 1.518 L/kg
Cmax (Rat pharmacokinetics; [4]): 7270 ± 139 ng/mL
Vd (Rat pharmacokinetics; [4]): 3.48 ± 0.232 L/kg
clearance (Rat pharmacokinetics; [4]): 27.8 mL/min/kg
AUC(0-t) (Rat pharmacokinetics; male, Sprague-Dawley, plasma, IV, 3 mg/kg free base (3.72 mg/kg salt)): 1800 ± 42.7 ng·h/mL
half-life (Rat pharmacokinetics; male, Sprague-Dawley, plasma, IV, 3 mg/kg free base, read-out: t1/2 (converted)): 1.4 ± 0.1 h
Cmax (Rat pharmacokinetics; male, Sprague-Dawley, plasma, PO, 10 mg/kg free base): 1290 ± 271 ng/mL
AUC(0-t) (Rat pharmacokinetics; male, Sprague-Dawley, plasma, PO, 10 mg/kg free base (12.4 mg/kg salt)): 2980 ± 228 ng·h/mL
bioavailability (Rat pharmacokinetics; male, Sprague-Dawley, plasma, PO, 10 mg/kg free base, read-out: % F): 50 ± 3.8%
half-life (Rat pharmacokinetics; male, Sprague-Dawley, plasma, PO, 10 mg/kg free base, read-out: t1/2 (converted)): 1.2 ± 0.4 h
Cmax (Rat pharmacokinetics; male, Sprague-Dawley, plasma, PO, 30 mg/kg free base): 2870 ± 355 ng/mL
AUC(0-t) (Rat pharmacokinetics; male, Sprague-Dawley, plasma, PO, 30 mg/kg free base (37.2 mg/kg salt)): 8250 ± 388 ng·h/mL
bioavailability (Rat pharmacokinetics; male, Sprague-Dawley, plasma, PO, 30 mg/kg free base, read-out: % F): 46 ± 2.5%
half-life (Rat pharmacokinetics; male, Sprague-Dawley, plasma, PO, 30 mg/kg free base, read-out: t1/2 (converted)): 2.3 ± 0.3 h
Cmax (Rat pharmacokinetics; male, Sprague-Dawley, plasma, PO, 100 mg/kg free base): 9390 ± 742 ng/mL
AUC(0-t) (Rat pharmacokinetics; male, Sprague-Dawley, plasma, PO, 100 mg/kg free base (124 mg/kg salt)): 29600 ± 1750 ng·h/mL
bioavailability (Rat pharmacokinetics; male, Sprague-Dawley, plasma, PO, 100 mg/kg free base, read-out: % F): 49 ± 2.7%
half-life (Rat pharmacokinetics; male, Sprague-Dawley, plasma, PO, 100 mg/kg free base, read-out: t1/2 (converted)): 2.6 ± 0.1 h
concentration at 24 h ([2]; brain, 10 mg/kg p.o., Table 3A): 124 ± 11 nM
concentration at 24 h ([2]; brain, 100 mg/kg p.o., Table 3A): 726 ± 51 nM
concentration at 24 h ([2]; plasma, 10 mg/kg p.o., Table 3C): 32 ± 2.4 nM
concentration at 24 h ([2]; plasma, 100 mg/kg p.o., Table 3C): 254 ± 73.5 nM
concentration at 24 h ([2]; spleen, 10 mg/kg p.o., Table 3B): 69 ± 6 nM
concentration at 24 h ([2]; spleen, 100 mg/kg p.o., Table 3B): 304 ± 63 nM

SMILES: O[C@@H]1CNCC(CF)[C@H]1O (stereo in doubt) [Compound A-HCl, (3R,4R,5R)-5-(fluoromethyl)piperidine-3,4-diol hydrochloride]
Ki ([1]; pH 5.2, read-out: Ki pH 5.2): 6 nM
IC50 [1, 3]: 6 nM and 7 nM
Ki ([1]; pH 7, read-out: Ki pH 7): 3 nM and 4 nM
bioavailability (Rat pharmacokinetics; male, Sprague-Dawley, plasma, po, read-out: oral bioavailability): ~50%
half-life (Rat pharmacokinetics; male, Sprague-Dawley, plasma, read-out: half-life): 1 to 2.5 h
